Laboratory results: patent US20070128217A1 (priority 2003, published 2007)

What was measured:
[1] = system: antibodies in sera from SARS patients (sera 1a, 1b, 2, 6, 37, 62, London, SARS-yellow, SARS-green); format: binding, human; set-up: Binding of serum 6 to linear peptides of protein X1 of SARS-CoV Urbani / Binding of serum 37 to linear peptides of protein X1 of SARS-CoV Urbani / Binding of serum 6 to looped/cyclic peptide (PEPSCAN-ELISA) / Binding of serum 37 to looped/cyclic peptide (PEPSCAN-ELISA) / Binding of serum 37 to looped/cyclic peptides of protein X1 of SARS-CoV Urbani / Binding of serum 6 to linear peptides of protein X2 / Binding of serum 37 to linear peptides of protein X2 / Binding of serum 37 to looped/cyclic peptides of protein X2 of SARS-CoV Urbani / Binding of serum 6 to linear peptides of protein M of SARS-CoV Urbani / Binding of serum 37 to linear peptides of protein M of SARS-CoV Urbani / Binding of serum 6 to looped/cyclic peptides of protein M of SARS-CoV Urbani / Binding of serum 37 to looped/cyclic peptides of protein M of SARS-CoV Urbani / Binding of serum 6 to linear peptides of protein X3 of SARS-CoV Urbani / Binding of serum 37 to linear peptides of protein X3 of SARS-CoV Urbani / Binding of serum 37 to looped/cyclic peptides of protein X3 of SARS-CoV Urbani / Binding of serum 6 to linear peptides of protein X4 of SARS-CoV Urbani / Binding of serum 37 to linear peptides of protein X4 of SARS-CoV Urbani / Binding of serum 37 to looped/cyclic peptides of protein X4 of SARS-CoV Urbani / Binding of serum 6 to linear peptides of protein X5 of SARS-CoV Urbani / Binding of serum 37 to linear peptides of protein X5 of SARS-CoV Urbani / Binding of serum 37 to looped/cyclic peptides of protein X5 of SARS-CoV Urbani / Binding of serum 6 to linear peptides of protein N of SARS-CoV Urbani / Binding of serum 37 to linear peptides of protein N of SARS-CoV Urbani / Binding of serum 6 to linear peptide (PEPSCAN-ELISA) / Binding of serum 1a to looped/cyclic peptides of protein N of SARS-CoV Urbani / Binding of serum 1b to looped/cyclic peptides of protein N of SARS-CoV Urbani / Binding of serum 2 to looped/cyclic peptides of protein N of SARS-CoV Urbani / Binding of serum 6 to looped/cyclic peptides of protein N of SARS-CoV Urbani / Binding of serum 37 to looped/cyclic peptides of protein N of SARS-CoV Urbani / Binding of serum 62 to looped/cyclic peptides of protein N of SARS-CoV Urbani / Binding of serum London to looped/cyclic peptides of protein N of SARS-CoV Urbani / Binding of serum SARS-green to looped/cyclic peptides of protein N of SARS-CoV Urbani: unit not given here
[2] = system: control sera (pooled serum of ten healthy LUMC hospital workers; commercial negative donor pooled serum from the Dutch bloodbank); format: binding, human; set-up: Binding of Control serum LUMC to linear peptides / Binding of Control serum Blood-bank to linear peptides / Binding of Control serum LUMC to looped peptides / Binding of Control Serum Blood-Bank to Looped peptides / Binding of Control serum LUMC to linear peptides of the protein M of SARS-CoV Urbani / Binding of Control serum Blood-bank to linear peptides of the protein M of SARS-CoV Urbani / Binding of Control serum LUMC to looped peptides of the protein M of SARS-CoV Urbani / Binding of Control Serum Blood-Bank to Looped peptides of the protein M of SARS-CoV Urbani: unit not given here
[3] = system: rabbit serum obtained by immunizing a rabbit with the SARS-CoV strain Frankfurt 1; format: binding; set-up: Binding of a rabbit serum to linear peptides / Binding of a rabbit serum to looped peptides / Rabbit serum linear peptides / Rabbit serum looped peptides / Binding of a rabbit serum to linear peptides of protein N of SARS-CoV Urbani (Rabbit serum linear peptides) / Binding of a rabbit serum to looped/cyclic peptides of protein N of SARS-CoV Urbani (Rabbit serum looped peptides): unit not given here
[4] = system: recombinant human anti-SARS-CoV antibody 03-018; format: binding; set-up: Binding of antibody 03-018 to linear peptides of the N protein of SARS-CoV Urbani / Binding of antibody 03-018 to looped/cyclic peptides of the N protein of SARS-CoV Urbani: unit not given here

Sequence | Binding of serum 1a to linear peptides of protein N of SARS-CoV Urbani [1] | Binding of serum 1a to looped/cyclic peptides of protein N of SARS-CoV Urbani [1] | Binding of serum 1b to linear peptides of protein N of SARS-CoV Urbani [1] | Binding of serum 1b to looped/cyclic peptides of protein N of SARS-CoV Urbani [1] | Binding of serum 2 to linear peptides of protein N of SARS-CoV Urbani [1] | Binding of serum 2 to looped/cyclic peptides of protein N of SARS-CoV Urbani [1] | Binding of serum 6 to looped/cyclic peptides of protein N of SARS-CoV Urbani [1] | Binding of serum 37 to looped/cyclic peptides of protein N of SARS-CoV Urbani [1] | Binding of serum 62 to looped/cyclic peptides of protein N of SARS-CoV Urbani [1] | Binding of serum London to looped/cyclic peptides of protein N of SARS-CoV Urbani [1] | Binding of serum SARS-green to looped/cyclic peptides of protein N of SARS-CoV Urbani [1] | Binding of serum SARS-yellow to looped/cyclic peptides of protein N of SARS-CoV Urbani [1] | Binding of a rabbit serum to linear peptides of protein N of SARS-CoV Urbani (Rabbit serum linear peptides) [3] | Binding of a rabbit serum to looped/cyclic peptides of protein N of SARS-CoV Urbani (Rabbit serum looped peptides) [3] | Binding of antibody 03-018 to linear peptides of the N protein of SARS-CoV Urbani [4] | Binding of antibody 03-018 to looped/cyclic peptides of the N protein of SARS-CoV Urbani [4] | Binding of Control Serum Blood-Bank to Looped peptides [2] | Binding of Control serum Blood-bank to linear peptides [2] | Binding of Control serum LUMC to linear peptides [2] | Binding of Control serum LUMC to looped peptides [2] | further results
NVILLNKHIDAYKTF | 0.2 | 0.5 | 0.1 | 0.3 | 0.2 | 0.4 | 0.3 | 0.7 | 0.7 | 0.9 | 0.3 | 0.7 | 0.2 | 0.6 | 0.1 | 0.2 |  |  |  |  | Binding of serum 6 to linear peptides of protein N of SARS-CoV Urbani [1]: 0.1; Binding of serum 37 to linear peptides of protein N of SARS-CoV Urbani [1]: 0.7; Binding of serum 62 to linear peptides of protein N of SARS-CoV Urbani [1]: 0.6; Binding of serum London to linear peptides of protein N of SARS-CoV Urbani [1]: 0.5; Binding of serum SARS-green to linear peptides of protein N of SARS-CoV Urbani [1]: 0.3; Binding of serum SARS-yellow to linear peptides of protein N of SARS-CoV Urbani [1]: 0.6; Control Serum Blood-Bank Looped peptides [2]: 0.8; Control serum Blood-bank linear peptides [2]: 0.7; Control serum LUMC linear peptides [2]: 0.7; Control serum LUMC looped peptides [2]: 0.7
NVTQAFGRRGPEQTQ |  | 0.3 |  | 0.2 |  | 0.3 | 0.2 | 0.5 | 0.4 | 0.4 | 0.3 | 0.3 |  |  | 0.1 | 0.2 | 0.5 | 0.7 | 0.7 | 0.5 | Binding of serum 1a to linear peptide (PEPSCAN-ELISA) [1]: 0.2; Binding of serum 1b to linear peptide (PEPSCAN-ELISA) [1]: 0.1; Binding of serum 2 to linear peptide (PEPSCAN-ELISA) [1]: 0.2; Binding of serum 6 to linear peptide (PEPSCAN-ELISA) [1]: 0.2; Binding of serum 37 to linear peptide (PEPSCAN-ELISA) [1]: 0.6; Binding of serum 62 to linear peptide (PEPSCAN-ELISA) [1]: 0.7; Binding of serum London to linear peptide (PEPSCAN-ELISA) [1]: 0.5; Binding of serum SARS-green to linear peptide (PEPSCAN-ELISA) [1]: 0.5; Binding of serum SARS-yellow to linear peptide (PEPSCAN-ELISA) [1]: 0.6; Recognition of the peptide by the rabbit serum [3]: recognized
PINTNSGPDDQIGYY | 0.2 | 0.4 | 0.2 | 0.4 | 0.2 | 0.4 | 0.2 | 0.7 | 0.5 | 0.4 | 0.8 | 0.5 | 0.1 | 0.4 | 0.1 | 0.2 | 0.5 | 0.7 | 0.7 | 0.6 | Binding of serum 6 to linear peptides of protein N of SARS-CoV Urbani [1]: 0.2; Binding of serum 37 to linear peptides of protein N of SARS-CoV Urbani [1]: 0.9; Binding of serum 62 to linear peptides of protein N of SARS-CoV Urbani [1]: 0.7; Binding of serum London to linear peptides of protein N of SARS-CoV Urbani [1]: 0.4; Binding of serum SARS-green to linear peptides of protein N of SARS-CoV Urbani [1]: 0.3; Binding of serum SARS-yellow to linear peptides of protein N of SARS-CoV Urbani [1]: 0.6
PKGFYAEGSRGGSQA |  | 0.3 |  | 0.3 |  | 0.3 | 0.2 | 0.4 | 0.5 | 0.3 | 0.4 | 0.2 | 0.1 | 0.1 | 0.1 | 0.2 | 0.5 | 0.8 | 0.7 | 0.5 | Binding of serum 1a to linear peptide (PEPSCAN-ELISA) [1]: 0.3; Binding of serum 1b to linear peptide (PEPSCAN-ELISA) [1]: 0.1; Binding of serum 2 to linear peptide (PEPSCAN-ELISA) [1]: 0.2; Binding of serum 6 to linear peptide (PEPSCAN-ELISA) [1]: 0.2; Binding of serum 37 to linear peptide (PEPSCAN-ELISA) [1]: 0.6; Binding of serum 62 to linear peptide (PEPSCAN-ELISA) [1]: 0.6; Binding of serum London to linear peptide (PEPSCAN-ELISA) [1]: 0.5; Binding of serum SARS-green to linear peptide (PEPSCAN-ELISA) [1]: 0.0; Binding of serum SARS-yellow to linear peptide (PEPSCAN-ELISA) [1]: 0.5
